Assay [1] can be described thus: Effect on the activity of prolyl endopeptidase (PEP) was evaluated at 1 mM concentration for DPP IV.
A short description of assay [2]: Effect on the activity of prolyl endopeptidase (PEP) was evaluated at the IC50 concentration for DPP IV and.

`CC(=O)Nc1cccc(OP(=O)(Oc2cccc(NC(C)=O)c2)C2CCCN2C(=O)C2CCCN2)c1` (configuration not stated) [2-{2-[Bis-(3-acetylamino-phenoxy)-phosphoryl]-pyrrolidine-1-carbonyl}-pyrrolidinium; chloride]: the IC50 in assay [1] came out at 50 µM; in assay [2] it was 89 µM.

The values above are taken from BindingDB's records for doi:10.1021/jm981033g (University of Antwerp (Uia), 1999).
